ChEMBL document CHEMBL5120961, “N-Arylimidazoliums as Highly Selective Biomimetic Antimicrobial Agents” (J Med Chem, 2022)
≈ marks a conversion by molar mass, not a printed value. Calls of active or inactive are those of the source. The calls are words filed in the database; no cut-off is given here.

Legend:
Staphylococcus aureus [1] = experiment: Antibacterial activity against Staphylococcus aureus ATCC 25923 assessed as inhibition of bacterial growth incubated for 16 to 18 hrs by broth microdilution method; format: functional; details: time 16-18 hrs
Escherichia coli = experiment: Antibacterial activity against Escherichia coli ATCC 25922 assessed as inhibition of bacterial growth incubated for 16 to 18 hrs by broth microdilution method; format: functional; details: time 16-18 hrs
Staphylococcus aureus [2] = experiment: Antibacterial activity against methicillin-resistant Staphylococcus aureus ATCC 43300 assessed as inhibition of bacterial growth incubated for 16 to 18 hrs by broth microdilution method; format: functional; details: time 16-18 hrs
[3] = Selectivity ratio of HC5 for hemolytic activity in rabbit erythrocytes to MIC for antibacterial activity against methicillin-resistant Staphylococcus aureus ATCC 43300; format: toxicity, cell-based
Erythrocyte = experiment: Hemolytic activity in rabbit erythrocytes incubated for 1 hr; format: toxicity, cell-based, Oryctolagus cuniculus
Enterococcus faecalis = experiment: Antibacterial activity against Enterococcus faecalis ATCC 29212 assessed as inhibition of bacterial growth incubated for 16 to 18 hrs by broth microdilution method; format: functional; details: time 16-18 hrs
Staphylococcus aureus [4] = experiment: Disruption of established biofilm in methicillin-resistant Staphylococcus aureus ATCC 43300 assessed as reduction of relative biofilm mass at 128XMIC incubated for 24 hrs by crystal violet staining based analysis; format: functional
Staphylococcus aureus [5] = experiment: Antibacterial activity against methicillin-resistant Staphylococcus aureus ATCC 43300 infected in BALB/c mouse assessed as reduction of histopathological changes of pulmonary tissue at 4 mg/kg, iv administered at 1, 6, 25 and 30 hrs post-infection and measured on day 7 post-infection by hematoxylin-eosin staining based analysis; format: functional, organism-based; details: time 7.0 day
Staphylococcus aureus [6] = experiment: Inhibition of biofilm formation in methicillin-resistant Staphylococcus aureus ATCC 43300 incubated for 24 hrs under stationary conditions by crystal violet staining based analysis; format: functional, organism-based

SMILES | MIC (Staphylococcus aureus [1]) [µg/mL] | MIC (Escherichia coli) [µg/mL] | MIC (Staphylococcus aureus [2]) [µg/mL] | selectivity ratio [3] | HC5 (Erythrocyte) [µg/mL] | MIC (Enterococcus faecalis) [µg/mL] | inhibition (INH) (Staphylococcus aureus [4]) [%] | Activity (Staphylococcus aureus [5]) | inhibition (Staphylococcus aureus [6])
CC[n+]1ccn(-c2ccc(C#Cc3ccc(-n4cc[n+](CC)c4)cc3)cc2)c1.[Br-].[Br-] | 64 | 8 | 64 | 125 | 8000 | – | – | – | –
CCCC[n+]1ccn(-c2ccc(C#Cc3ccc(-n4cc[n+](CCCC)c4)cc3)cc2)c1.[Br-].[Br-] | 2 | 8 | 4 | 500 | 2000 | – | – | – | –
CN[C@H](CC(C)C)C(=O)N[C@H]1C(=O)N[C@@H](CC(N)=O)C(=O)N[C@H]2C(=O)N[C@H]3C(=O)N[C@H](C(=O)N[C@H](C(=O)O)c4cc(O)cc(O)c4-c4cc3ccc4O)[C@H](O)c3ccc(c(Cl)c3)Oc3cc2cc(c3O[C@@H]2O[C@H](CO)[C@@H](O)[C@H](O)[C@H]2O[C@H]2C[C@](C)(N)[C@H](O)[C@H](C)O2)Oc2ccc(cc2Cl)[C@H]1O [VANCOMYCIN] | – | – | – | – | – | 1 (≈ 0.69 µM) | 37 | Active | Active
CCCCCCCC[n+]1ccn(CCCCn2cc[n+](CCCCCCCC)c2)c1.[Br-].[Br-] | 4 | 32 | 8 | 50 | 400 | – | – | – | –
CCCCCC[n+]1ccn(-c2ccc(CCc3ccc(-n4cc[n+](CCCCCC)c4)cc3)cc2)c1.[Br-].[Br-] | 0.5 | 4 | 1 | 1000 | 1000 | – | – | – | –
CCCCCC[n+]1ccn(CCCCn2cc[n+](CCCCCC)c2)c1.[Br-].[Br-] | 125 | 125 | 500 | 16 | 8000 | – | – | – | –
CCn1cc(C(=O)O)c(=O)c2cc(F)c(N3CCNCC3)cc21 [NORFLOXACIN] | 1 (≈ 3.13 µM) | – | 1 (≈ 3.13 µM) | – | – | – | – | – | –
